In ChEMBL document CHEMBL1201862, “PubChem BioAssay data set” (2004):
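Protocol summary: plate cells (96-well), add compound at 5 concentrations, incubate 48 h, interpolate endpoints linearly. At the GI50, growth is halved.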 Activity calls are given as the source filed them. No stated cut-off is given here; in the data, active = GI50 up to about 1.1 µM and inactive = higher.

Experiments:
Test in all cases: growth of human tumour cells (NCI), 48 h
[1] = tested on: A498
[2] = tested on: BT-549
[3] = tested on: CAKI-1
[4] = tested on: COLO 205
[5] = tested on: HL-60
[6] = tested on: IGROV-1
[7] = tested on: K562
[8] = tested on: MCF7
[9] = tested on: MDA-MB-231
[10] = tested on: MDA-MB-435
[11] = tested on: MDA-N
[12] = tested on: Malme-3M
[13] = tested on: NCI-H522
[14] = tested on: OVCAR-4
[15] = tested on: PC-3
[16] = tested on: SF-295
[17] = tested on: SF-539
[18] = tested on: SNB-75
[19] = tested on: SR
[20] = tested on: T47D

## COc1ccc2c(c1)c1nn(CCN3CCCCC3)c3ccc4c(=O)n(CCN(C)C)c(=O)n2c4c13
[1]
  GI50: < 0.022 µM (active)
[2]
  GI50: 0.245 µM (active)
[3]
  GI50: 0.0219 µM (active)
[4]
  GI50: 0.148 µM (active)
[5]
  GI50: 0.076 µM (active)
[6]
  GI50: < 0.01 µM (active)
[7]
  GI50: < 0.01 µM (active)
[8]
  GI50: < 0.01 µM (active)
[9]
  GI50: < 0.0119 µM (active)
[10]
  GI50: < 0.0109 µM (active)
[11]
  GI50: < 0.0109 µM (active)
[12]
  GI50: 0.0619 µM (active)
[13]
  GI50: < 0.01 µM (active)
[14]
  GI50: < 0.01 µM (active)
[15]
  GI50: 0.019 µM (active)
[16]
  GI50: < 0.01 µM (active)
[17]
  GI50: 0.0284 µM (active)
[18]
  GI50: < 0.01 µM (active)
[19]
  GI50: < 0.01 µM (active)
[20]
  GI50: < 0.0175 µM (active)

## CCOC(=O)/C(=C\Nc1c(C)n(C)n(-c2ccccc2)c1=O)C(=O)c1ccccc1
[1]
  GI50: > 100 µM (inactive)
[2]
  GI50: > 100 µM (inactive)
[3]
  GI50: > 100 µM (inactive)
[4]
  GI50: > 100 µM (inactive)
[5]
  GI50: > 100 µM (inactive)
[6]
  GI50: > 100 µM (inactive)
[7]
  GI50: > 100 µM (inactive)
[8]
  GI50: > 100 µM (inactive)
[9]
  GI50: > 100 µM (inactive)
[10]
  GI50: > 100 µM (inactive)
[11]
  GI50: > 100 µM (inactive)
[12]
  GI50: > 100 µM (inactive)
[13]
  GI50: > 100 µM (inactive)
[14]
  GI50: > 100 µM (inactive)
[15]
  GI50: > 100 µM (inactive)
[16]
  GI50: > 100 µM (inactive)
[17]
  GI50: > 100 µM (inactive)
[19]
  GI50: > 100 µM (inactive)
[20]
  GI50: > 100 µM (inactive)

## COC1/C=C/C(C)C(O)CC(O)/C=C/C(C)C(C(C)C(OC)C(C)CCC(=O)C(C)C(C/C=C/N(C)C=O)OC)OC(=O)/C=C/C=C(\C)CC(OC)CC2=CC(=O)O[C@@H](C(C)C(OC)C1)[C@H]2O (stereo partly specified)
[1]
  GI50: < 0.005 µM (active)
[2]
  GI50: 0.0311 µM (active)
[3]
  GI50: < 0.005 µM (active)
[4]
  GI50: 0.00513 µM (active)
[5]
  GI50: < 0.005 µM (active)
[6]
  GI50: 0.0113 µM (active)
[8]
  GI50: 0.00522 µM (active)
[9]
  GI50: < 0.005 µM (active)
[10]
  GI50: 0.0105 µM (active)
[11]
  GI50: < 0.005 µM (active)
[12]
  GI50: < 0.005 µM (active)
[13]
  GI50: < 0.005 µM (active)
[14]
  GI50: 0.0267 µM (active)
[15]
  GI50: < 0.005 µM (active)
[16]
  GI50: < 0.005 µM (active)
[17]
  GI50: < 0.005 µM (active)
[18]
  GI50: < 0.005 µM (active)
[19]
  GI50: 0.00736 µM (active)
[20]
  GI50: 0.0219 µM (active)

## CC12Cc3cc4c(cc3C1(c1ccc([N+](=O)[O-])cc1)OCCO2)OCO4 (stereo unspecified)
[1]
  GI50: > 100 µM (inactive)
[2]
  GI50: 25.5 µM (inactive)
[3]
  GI50: > 100 µM (inactive)
[4]
  GI50: > 100 µM (inactive)
[5]
  GI50: > 100 µM (inactive)
[6]
  GI50: 23.1 µM (inactive)
[7]
  GI50: > 100 µM (inactive)
[8]
  GI50: 76.7 µM (inactive)
[9]
  GI50: 14.9 µM (inactive)
[10]
  GI50: > 100 µM (inactive)
[11]
  GI50: > 100 µM (inactive)
[12]
  GI50: > 100 µM (inactive)
[13]
  GI50: 91 µM (inactive)
[14]
  GI50: > 100 µM (inactive)
[15]
  GI50: 97.7 µM (inactive)
[16]
  GI50: 25.2 µM (inactive)
[17]
  GI50: 28 µM (inactive)
[19]
  GI50: > 100 µM (inactive)
[20]
  GI50: > 100 µM (inactive)

## CC(C)=CC(O)C/C(C)=C/CC/C(C)=C/CCC1(C)C(CCCO)/C(=C(/C)C=O)CCC1(C)O (stereo unspecified)
[1]
  GI50: 34.2 µM (inactive)
[2]
  GI50: 40.6 µM (inactive)
[3]
  GI50: 41.9 µM (inactive)
[4]
  GI50: 32.7 µM (inactive)
[5]
  GI50: 23 µM (inactive)
[6]
  GI50: 24.8 µM (inactive)
[7]
  GI50: 2.99 µM (inactive)
[8]
  GI50: 37.4 µM (inactive)
[9]
  GI50: 24.7 µM (inactive)
[10]
  GI50: 31 µM (inactive)
[11]
  GI50: 22.1 µM (inactive)
[12]
  GI50: 34 µM (inactive)
[13]
  GI50: 39.7 µM (inactive)
[14]
  GI50: 25.5 µM (inactive)
[15]
  GI50: 44.8 µM (inactive)
[16]
  GI50: 28.8 µM (inactive)
[17]
  GI50: 25.1 µM (inactive)
[18]
  GI50: > 100 µM (inactive)
[19]
  GI50: 37 µM (inactive)
[20]
  GI50: 61.9 µM (inactive)

## CN1CC2=C(N=C(S)NC2c2ccc(Cl)cc2)/C(=C/c2ccc(Cl)cc2)C1 (stereo unspecified)
[1]
  GI50: > 10 µM (inactive)
[2]
  GI50: 20.4 µM (inactive)
[3]
  GI50: 18.3 µM (inactive)
[4]
  GI50: 17.4 µM (inactive)
[5]
  GI50: 14.6 µM (inactive)
[6]
  GI50: 16.1 µM (inactive)
[7]
  GI50: 12.6 µM (inactive)
[8]
  GI50: 22 µM (inactive)
[9]
  GI50: 20.8 µM (inactive)
[10]
  GI50: 14.9 µM (inactive)
[11]
  GI50: 19.7 µM (inactive)
[12]
  GI50: 14.5 µM (inactive)
[13]
  GI50: 15.5 µM (inactive)
[15]
  GI50: 9.4 µM (inactive)
[16]
  GI50: 17.6 µM (inactive)
[17]
  GI50: 25.9 µM (inactive)
[18]
  GI50: 15.1 µM (inactive)
[19]
  GI50: 15.6 µM (inactive)
[20]
  GI50: 15 µM (inactive)

## O=S1OC[C@H](CCCl)O1 (stereo partly specified)
[1]
  GI50: > 100 µM (inactive)
[2]
  GI50: > 100 µM (inactive)
[3]
  GI50: > 100 µM (inactive)
[4]
  GI50: > 100 µM (inactive)
[5]
  GI50: > 100 µM (inactive)
[6]
  GI50: > 100 µM (inactive)
[7]
  GI50: > 100 µM (inactive)
[8]
  GI50: > 100 µM (inactive)
[9]
  GI50: > 100 µM (inactive)
[10]
  GI50: > 100 µM (inactive)
[11]
  GI50: > 100 µM (inactive)
[12]
  GI50: > 100 µM (inactive)
[13]
  GI50: > 100 µM (inactive)
[14]
  GI50: > 100 µM (inactive)
[15]
  GI50: > 100 µM (inactive)
[16]
  GI50: > 100 µM (inactive)
[17]
  GI50: > 100 µM (inactive)
[18]
  GI50: > 100 µM (inactive)
[19]
  GI50: > 100 µM (inactive)
[20]
  GI50: > 100 µM (inactive)
